US20160220569A1, “CDK4/6 Inhibitor Dosage Formulations For The Protection Of Hematopoietic Stem And Progenitor Cells During Chemotherapy” (G1 Therapeutics, Inc., priority 2015, published 2016)
Read-outs that look alike come from different tables or passages of the source.

Test: Single escalating dose IV infusion pharmacokinetics in healthy volunteers (noncompartmental)
Type: in vivo, human
Conditions: both sexes, human, plasma, iv; for concentration at 24.5 h: read-out: concentration at 24.5 hours after the start of infusion; for concentration at 0.25 h / concentration at 0.5 h / concentration at 0.75 h / concentration at 1 h / concentration at 2.5 h / concentration at 3.5 h / concentration at 8.5 h / concentration at 12.5 h / concentration at 6.5 h: r7-9=Subjects 1-3,r11=Mean,r13=Min,r14=Median,r15=Max,r17=Geometric Mean; for concentration at 0.5 h: Time 0.50 h
Method: Forty-five subjects have enrolled in the study.
Analysis of plasma concentration versus time data for calculation of standard pharmacokinetic (PK) parameters following intravenous infusion administration was conducted using Phoenix WinNonlin version 6.3 using a nominal infusion duration and scheduled blood sampling times. Random subject numbers were assigned by the bioanalytical laboratory to retain the blind.
(§1) Analysis of plasma concentration versus time data for calculation of standard pharmacokinetic (PK) parameters following intravenous infusion administration was conducted using Phoenix WinNonlin version 6.3 using a nominal infusion duration and scheduled blood sampling times.
as §1

[1] = 6 mg/m^2, Compound 1 Concentration, Cohort 1, 6 mg/m^2 IV
[2] = 12 mg/m^2, Compound 1 Concentration, Cohort 2, 12 mg/m^2 IV
[3] = 24 mg/m2, Cohort 3, 24 mg/m^2 IV, r6-8=Subjects 1-3,r10=Mean,r12=Min,r13=Median,r14=Max,r16=Geometric Mean

In the case of `CN1CCN(c2ccc(Nc3ncc4cc5n(c4n3)C3(CCCCC3)CNC5=O)nc2)CC1` [Compound 1, 2′-((5-(4-methylpiperazin-1-yl)pyridin-2-yl)amino)-7′,8′-dihydro-6′H-spiro[cyclohexane-1,9′-pyrazino[1′,2′:1,5]pyrrolo[2,3-d]pyrimidin]-6′-one], the concentration at 24.5 h (6 mg/m^2, Cohort 1, 6 mg/m^2 IV, 1 of 3 subjects measurable) is reported as 0.595 ng/mL, the concentration at 0.25 h [1] is reported as 49 ng/mL and the concentration at 0.5 h [1] is reported as 46.9 ng/mL. For the same compound, the concentration at 0.75 h [1] was 16.3 ng/mL, the concentration at 1 h (6 mg/m^2, Compound 1 Concentration, Cohort 1, 6 mg/m^2 IV, Time 1.00 h) was 11.8 ng/mL and the concentration at 2.5 h (6 mg/m^2, Compound 1 Concentration, Cohort 1, 6 mg/m^2 IV, Time 2.50 h) was 4.69 ng/mL. For the same compound, the concentration at 3.5 h (6 mg/m^2, Compound 1 Concentration, Cohort 1, 6 mg/m^2 IV, Time 3.50 h) was 3.75 ng/mL, the concentration at 8.5 h (6 mg/m^2, Compound 1 Concentration, Cohort 1, 6 mg/m^2 IV, Time 8.50 h) was 1.39 ng/mL and the concentration at 12.5 h (6 mg/m^2, Compound 1 Concentration, Cohort 1, 6 mg/m^2 IV, Time 12.50 h) was 0.752 ng/mL. For the same compound, the AUC(0-inf) (12 mg/m2, Cohort 2, 12 mg/m^2 IV, mean, read-out: AUCinf averaged) was 148 ng·h/mL, the Cmax (12 mg/m2, Cohort 2, 12 mg/m^2 IV, mean, read-out: Cmax averaged) was 122 ng/mL and the half-life (12 mg/m2, Cohort 2, 12 mg/m^2 IV, mean, read-out: Half-lives averaged (converted)) was 8.22 h. For the same compound, the Tmax (12 mg/m2, Cohort 2, 12 mg/m^2 IV, median, read-out: median Tmax) was 0.5 h, the MRT inf (12 mg/m2, Cohort 2, 12 mg/m^2 IV, r6-8=Subjects 1-3,r10=Mean,r12=Min,r13=Median,r14=Max,r16=Geometric Mean) was 5.56 h and the AUC(0-inf) (12 mg/m2, Cohort 2, 12 mg/m^2 IV, r6-8=Subjects 1-3,r10=Mean,r12=Min,r13=Median,r14=Max,r16=Geometric Mean, read-out: AUCinf) was 148 ng·h/mL. For the same compound, the Cmax (12 mg/m2, Cohort 2, 12 mg/m^2 IV, r6-8=Subjects 1-3,r10=Mean,r12=Min,r13=Median,r14=Max,r16=Geometric Mean, read-out: Cmax) was 122 ng/mL, the Tmax (12 mg/m2, Cohort 2, 12 mg/m^2 IV, r6-8=Subjects 1-3,r10=Mean,r12=Min,r13=Median,r14=Max,r16=Geometric Mean, read-out: Tmax) was 0.417 h and the half-life (12 mg/m2, Cohort 2, 12 mg/m^2 IV, r6-8=Subjects 1-3,r10=Mean,r12=Min,r13=Median,r14=Max,r16=Geometric Mean, read-out: t½ (converted)) was 8.22 h. The half-life (12 mg/m2, Cohort 2, 12 mg/m^2 IV, range over subjects, read-out: Half-lives range) was 7.56 to 8.89 h, the concentration at 24.5 h (12 mg/m^2, Cohort 2, 12 mg/m^2 IV, range over 3 subjects) was 0.506 to 1.06 ng/mL and the concentration at 0.25 h [2] was 115 ng/mL. For the same compound, the concentration at 0.5 h [2] was 102 ng/mL, the concentration at 0.75 h [2] was 33.2 ng/mL and the concentration at 1 h (12 mg/m^2, Compound 1 Concentration, Cohort 2, 12 mg/m^2 IV, Time 1.0 h) was 23.9 ng/mL. The concentration at 2.5 h (12 mg/m^2, Compound 1 Concentration, Cohort 2, 12 mg/m^2 IV, Time 2.5 h) was 8.75 ng/mL, the concentration at 3.5 h (12 mg/m^2, Compound 1 Concentration, Cohort 2, 12 mg/m^2 IV, Time 3.5 h) was 7.89 ng/mL and the concentration at 6.5 h [2] was 3.99 ng/mL. It also gave a concentration at 8.5 h (12 mg/m^2, Compound 1 Concentration, Cohort 2, 12 mg/m^2 IV, Time 8.5 h) of 2.79 ng/mL, a concentration at 12.5 h (12 mg/m^2, Compound 1 Concentration, Cohort 2, 12 mg/m^2 IV, Time 12.5 h) of 1.65 ng/mL and an AUC(0-inf) (24 mg/m2, Cohort 3, 24 mg/m^2 IV, mean, read-out: AUCinf averaged) of 287 ng·h/mL. The Cmax (24 mg/m2, Cohort 3, 24 mg/m^2 IV, mean, read-out: Cmax averaged) was 252 ng/mL, the half-life (24 mg/m2, Cohort 3, 24 mg/m^2 IV, mean, read-out: Half-lives averaged (converted)) was 9.88 h and the Tmax (24 mg/m2, Cohort 3, 24 mg/m^2 IV, median, read-out: median Tmax) was 0.5 h. For the same compound, the AUC(0-t) [3] was 261 ng·h/mL, the MRT inf [3] was 6.65 h and the AUC(0-inf) (24 mg/m2, Cohort 3, 24 mg/m^2 IV, r6-8=Subjects 1-3,r10=Mean,r12=Min,r13=Median,r14=Max,r16=Geometric Mean, read-out: AUCinf) was 287 ng·h/mL. It also gave a Cmax (24 mg/m2, Cohort 3, 24 mg/m^2 IV, r6-8=Subjects 1-3,r10=Mean,r12=Min,r13=Median,r14=Max,r16=Geometric Mean, read-out: Cmax) of 252 ng/mL, a Tmax (24 mg/m2, Cohort 3, 24 mg/m^2 IV, r6-8=Subjects 1-3,r10=Mean,r12=Min,r13=Median,r14=Max,r16=Geometric Mean, read-out: Tmax) of 0.5 h and a half-life (24 mg/m2, Cohort 3, 24 mg/m^2 IV, r6-8=Subjects 1-3,r10=Mean,r12=Min,r13=Median,r14=Max,r16=Geometric Mean, read-out: t½ (converted)) of 9.88 h. The half-life (24 mg/m2, Cohort 3, 24 mg/m^2 IV, range over subjects, read-out: Half-lives range) was 7.85 to 13.1 h, the concentration at 24.5 h (24 mg/m^2, Cohort 3, 24 mg/m^2 IV, range over 3 subjects) was 0.87 to 2.91 ng/mL and the concentration at 1 h (24 mg/m^2, Compound 1 Concentration, Cohort 3, 24 mg/m^2 IV, Time 1.0 h) was 39.2 ng/mL. The concentration at 2.5 h (24 mg/m^2, Compound 1 Concentration, Cohort 3, 24 mg/m^2 IV, Time 2.5 h) was 15 ng/mL, the concentration at 3.5 h (24 mg/m^2, Compound 1 Concentration, Cohort 3, 24 mg/m^2 IV, Time 3.5 h) was 11.6 ng/mL and the concentration at 6.5 h (24 mg/m^2, Compound 1 Concentration, Cohort 3, 24 mg/m^2 IV) was 6.7 ng/mL. For the same compound, the concentration at 8.5 h (24 mg/m^2, Compound 1 Concentration, Cohort 3, 24 mg/m^2 IV, Time 8.5 h) was 4.91 ng/mL and the AUC(0-inf) (48 mg/m2, Cohort 4, 48 mg/m^2 IV, mean, read-out: AUCinf averaged) was 499 ng·h/mL.
